Test results from PMC11208146, “Molecular basis for transposase activation by a dedicated AAA+ ATPase” (Nature, 2024).

Tests used:
Format in all cases: binding
[1] = biological target: T1, IstA–IstB–STC holo-transpososome (Geobacillus stearothermophilus, UniProt Q45618+Q45619, Q45619:E167Q, form not given); assay: cryo-EM structure, […] Å; details: assembled with 1 mM ATP, 5 mM MgCl2, pH 7.5, strand-transfer DNA; internal IstB-IstB sites (e.g. 1b)
T1 construct: full-length IstB (His6-MBP cleaved) with full-length IstA (C-terminal MBP-His6 cleaved by TEV), E. coli; in the structure one IstA tetramer, two IstB decamers and strand-transfer DNA, about 1 MDa; IstA Glu209/Tyr213 contact the nucleotide of IstB 1a/1a'

[2] = biological target: T2, IstB (Geobacillus stearothermophilus, UniProt Q45619); assay: cryo-EM structure, […] Å; details: 5 mM MgCl2, 1 mM ATP, pH 7.5, 60 bp target DNA; eight complete sites at IstB-IstB interfaces
T2 construct: full-length; His6-MBP tag cleaved (PreScission); E. coli BL21 codon-plus (DE3) RIL; pentamer of dimers (decamer) on 60 bp target DNA

[3] = biological target: T1, IstA–IstB–STC holo-transpososome; assay: cryo-EM structure, focused refinement of core, […] Å; details: assembled with 1 mM ATP, 5 mM MgCl2, pH 7.5, strand-transfer DNA; IstB monomers 1a and 1a' contacting IstA

Compound	cryo-EM structure, 3.6 Å [1]	cryo-EM structure, 3.2 Å [2]	cryo-EM structure, focused refinement of core, 3.2 Å [3]
Nc1ncnc2c1ncn2[C@@H]1O[C@H](COP(=O)(O)OP(=O)(O)OP(=O)(O)O)[C@@H](O)[C@H]1O [ATP]	other subunits (1b, bound to ATP, shown on the right for comparison)	Close inspection of the EM map showed clear density maps for ATP in all binding pockets	
Nc1ncnc2c1ncn2[C@@H]1O[C@H](COP(=O)(O)OP(=O)(O)O)[C@@H](O)[C@H]1O [ADP]			revealed that the density in these active sites is most consistent with ADP
